Structures are written as SMILES. In brackets after ≈: the same amount, converted by molar mass.

This assay has as its system Mycobacterium tuberculosis. In words: Antimycobacterial activity against Mycobacterium tuberculosis by agar dilution method. Format: functional. (In general: In agar dilution the substance is mixed into plates at graded concentrations.)
The MIC is the lowest concentration found to suppress growth. Read a low MIC as a more susceptible organism. As to `CCOc1ccc(/C=N/NC(=O)CN2N=C(C)CCC2=O)cc1`, the MIC is more than 25 µM.

The compound `CC1=NN(CC(=O)N/N=C(\C)c2ccc([N+](=O)[O-])cc2)C(=O)CC1` came in with a minimum inhibitory concentration (MIC) of 12.5 µM (≈ 4.14 µg/mL). As for `CC1=NN(CC(=O)N/N=C/c2ccc(Br)cc2)C(=O)CC1`, the MIC is 1.56 µM (≈ 0.548 µg/mL). This MIC lies about 8-fold lower than the previous one.

For `CC1=NN(CC(=O)N/N=C(\C)c2ccc(Cl)cc2)C(=O)CC1`, the lowest concentration to inhibit growth (MIC) was 12.5 µM (≈ 4.01 µg/mL). On to `CC1=NN(CC(=O)N/N=C/c2ccco2)C(=O)CC1`, for which the minimal inhibitory concentration (MIC) was more than 25 µM.

Compound `CC1=NN(CC(=O)N/N=C/c2ccc(C(F)(F)F)cc2)C(=O)CC1` showed an MIC of 1.56 µM (≈ 0.531 µg/mL). Consider `CO[C@H]1/C=C/O[C@@]2(C)Oc3c(C)c(O)c4c(O)c(c(/C=N/N5CCN(C)CC5)c(O)c4c3C2=O)NC(=O)/C(C)=C\C=C\[C@H](C)[C@H](O)[C@@H](C)[C@@H](O)[C@@H](C)[C@H](OC(C)=O)[C@@H]1C` [RIFAMPIN], for which the lowest concentration to inhibit growth (MIC) was 0.1 µM (≈ 0.0823 µg/mL). In the case of `O=C(O)c1cn(C2CC2)c2cc(N3CCNCC3)c(F)cc2c1=O` [CIPROFLOXACIN] it was 1.56 µM (≈ 0.517 µg/mL); in that of `CC1=NN(CC(=O)N/N=C/c2ccc(C)cc2)C(=O)CC1`, 12.5 µM (≈ 3.58 µg/mL); in that of `CC1=NN(CC(=O)N/N=C(\C)c2ccc(-c3ccccc3)cc2)C(=O)CC1`, 25 µM (≈ 9.06 µg/mL). Under `CC1=NN(CC(=O)N/N=C(\C)c2ccc(Cl)cc2Cl)C(=O)CC1` stands 12.5 µM (≈ 4.44 µg/mL); under `CC1=NN(CC(=O)N/N=C/c2ccc(F)cc2)C(=O)CC1`, 1.56 µM (≈ 0.453 µg/mL).

As to `CC1=NN(CC(=O)N/N=C(\C)c2ccc(Br)cc2)C(=O)CC1`, the lowest concentration to inhibit growth (MIC) was 12.5 µM (≈ 4.57 µg/mL). `NNC(=O)c1ccncc1` [ISONIAZID] had an MIC of 0.05 µM (≈ 0.00686 µg/mL).

Take `CC[C@@H](CO)NCCN[C@@H](CC)CO` [ETHAMBUTOL]: the lowest concentration to inhibit growth (MIC) was 1.56 µM (≈ 0.319 µg/mL). This MIC is about 31-fold higher than that of the compound before. In turn, `CC1=NN(CC(=O)NN)C(=O)CC1` returned an MIC of 25 µM (≈ 4.6 µg/mL). In the case of `CC1=NN(CC(=O)NNC(=S)Nc2ccccc2)C(=O)CC1` it was more than 25 µM. In the case of `CC1=NN(CC(=O)N/N=C/c2ccc(Cl)cc2Cl)C(=O)CC1` it was 0.78 µM (≈ 0.266 µg/mL); in that of `CC1=NN(CC(=O)N/N=C/c2ccc(N(C)C)cc2)C(=O)CC1`, 12.5 µM (≈ 3.94 µg/mL). Compound `CC1=NN(CC(=O)N/N=C/c2ccccc2)C(=O)CC1` gave an MIC of 12.5 µM (≈ 3.4 µg/mL).

For `COc1ccc(/C(C)=N/NC(=O)CN2N=C(C)CCC2=O)cc1`, it took 25 µM (≈ 7.91 µg/mL) to inhibit growth (MIC). In the case of `COc1ccc(/C=N/NC(=O)CN2N=C(C)CCC2=O)cc1` it was 25 µM (≈ 7.56 µg/mL). Turning to `CC1=NN(CC(=O)N/N=C/c2ccc([N+](=O)[O-])cc2)C(=O)CC1`, the MIC worked out at 6.25 µM (≈ 1.98 µg/mL). For the compound `CC1=NN(CC(=O)N/N=C/c2ccc(Cl)cc2)C(=O)CC1`, the MIC was 3.13 µM (≈ 0.96 µg/mL). In the case of `CC1=NN(CC(=O)N/N=C/c2cccs2)C(=O)CC1` it was 25 µM (≈ 6.96 µg/mL); in that of `CCNC(=S)NNC(=O)CN1N=C(C)CCC1=O`, more than 25 µM; in that of `CNC(=S)NNC(=O)CN1N=C(C)CCC1=O`, more than 25 µM. Take `CC1=NN(CC(=O)N/N=C(\C)c2ccccc2)C(=O)CC1`: inhibition of growth (MIC) required 25 µM (≈ 7.16 µg/mL). In the case of `CC1=NN(CC(=O)N/N=C(\C)c2ccc(C)cc2)C(=O)CC1` it was 25 µM (≈ 7.51 µg/mL).

The values are drawn from ChEMBL document CHEMBL3046633, “Synthesis and antimycobacterial activities of some new N-acylhydrazone and thiosemicarbazide derivatives of 6-methyl-4,5-dihydropyridazin-3(2H)-one” (2012).
